The test system of experiment [1] is canine parvovirus 2c (CPV-2c). Briefly: CPE visual scoring assay, CPV-2c in CrFK cells. In kind it is cell-based.
Experiment [2] concerns feline panleukopenia virus (FPV). Briefly: CPE visual scoring assay, FPV in CrFK cells. It is filed as cell-based. Here is the method: Crandell Reese Feline Kidney (CrFK) cells were grown in Dulbecco minimum essential medium (DMEM, Life Technologies) containing 1% sodium bicarbonate (Life Technologies), 1% L-Glutamine (Life Technologies) and 5% fetal calf serum (FCS, Biochrom). In a 96 well plate a serial dilution of compound was added together with 10 TCID50 of feline panleukopenia virus (FPV) or 10 TCID50 canine parvovirus 2c (CPV-2c) and 20,000 CrFK cells. Infected cells without any added compound were used as positive controls (virus control) and uninfected cells were used as negative controls (cell control). The cells were incubated for 4 days and viral cytopathogenic effect (CPE) was scored visually. EC50-values were determined as the concentration of compound that inhibited 50% of the viral replication as compared with virus control.
2-methyladamantan-2-amine HCl and 2-ethyladamantan-2-amine HCl were dissolved in Dulbecco's phosphate buffered saline (DPBS) at a concentration of 10 mM. The inhibition experiments and the preparation thereof were performed as described above for Example 2. […]

The test system of experiment [3] is canine parvovirus 2c (CPV-2c). Briefly: CPV-2c DNA reduction by quantitative PCR, CrFK cells. In kind it is cell-based.
Experiment [4] relates to feline panleukopenia virus (FPV). In words: FPV DNA reduction by quantitative PCR, CrFK cells. It is filed as cell-based. The note with it: read-out: EC50-value (μM) for FPV, DNA reduction. The procedure: (§1) Amantadine, amantadine hydrochloride (HCl) and memantine were dissolved in Dulbecco's phosphate buffered saline (DPBS) at a concentration of 10 mM. Crandell Reese Feline Kidney (CrFK) cells were grown in Dulbecco minimum essential medium (DMEM, Life Technologies) containing 1% sodium bicarbonate (Life Technologies), 1% L-Glutamine (Life Technologies) and 5% fetal calf serum (FCS, Biochrom). In a 24 well plate 100,000 CrFK cells were seeded on day 0. On day 1, the medium was removed and 10 TCID50 of FPV or 10 TCID50 CPV-2c was added and incubated for 2 h at 37° C. in humidified conditions. After incubation, medium was removed and CrFK cells were washed with DPBS. Subsequently, a serial dilution of compound in culture medium was added (250, 50, and 10 μM). Infected cells without any added compound were used as positive controls (virus control) and uninfected cells were used as negative controls (cell control). The cells were incubated at 37° C. in humidified conditions. After 4 days of incubation medium containing newly produced virus particles was collected and viral titers were determined using CrFK cells. In addition, 200 μL of supernatant was extracted to obtain FPV or CPV-2c DNA using the QIAamp DNA extraction kit (Qiagen). The extracted FPV DNA was detected by a real time PCR using the Taqman Fast Universal mastermix (Life Technologies) and the standard Fast cycling protocol using the StepOnePlus real time device (Applied Biosystems). In the PCR mixture an optimized 900 nM of each forward and reverse primer was used and 250 nM FAM-BHQ1 labeled probe as published by Decaro et al. (J. Virol. Methods 2008, 147, 67-71). EC50 values were determined as the concentration of compound that inhibited 50% of the viral DNA.
2-methyladamantan-2-amine HCl and 2-ethyladamantan-2-amine HCl were dissolved in Dulbecco's phosphate buffered saline (DPBS) at a concentration of 10 mM. The inhibition experiments and the preparation thereof were performed as described above for Example 2.

Experiment [5] has the same test system. In words: FPV titer reduction, titration of produced virus on CrFK cells. In kind it is cell-based. Here is the method: as §1
Reduction of CPV-2c and FPV titers under increasing concentrations of amantadine hydrochloride (HCl) and memantine are shown in Table 3a and 3b, respectively. Viral titers are determined by titration of the produced virus on CrFK cells and incubated for 5 days. The obtained titers where compared with the control (virus production without addition of compound).

For experiment [6], the system named is canine parvovirus 2c (CPV-2c). In words: CPV-2c titer reduction, titration of produced virus on CrFK cells. In kind it is cell-based.
In experiment [7] the test system is canine parvovirus type 2 (CPV2). In words: Treatment of dog naturally infected with canine parvovirus type 2. It is filed as in vivo. Particulars: beagle puppy, CPV2 PCR-positive, 10 mg/kg twice daily for 2 weeks.
Where [8] appears, read: Canine parvovirus, 96 h, Table 1, CPE visual scoring, CrFK cells, 10 TCID50, 4 days, read-out: EC50-value (μM) for CPV-2c.
Where [9] appears, read: Feline panleukopenia virus, CRFK, 96 h, Table 1, CPE visual scoring, CrFK cells, 10 TCID50, 4 days, read-out: EC50-value (μM) for FPV.
[10] abbreviates: Canine parvovirus, CRFK, Table 4a, CPE visual scoring assay, read-out: EC50-value (μM) for CPV-2c.
The mark [11] stands for this setting: Feline panleukopenia virus, CRFK, read-out: EC50-value (μM) for FPV, Table 4a, CPE visual scoring assay.
The mark [12] stands for this setting: CRFK, Table 4b, quantitative PCR, read-out: EC50-value (μM) for CPV-2c, DNA reduction.
Setting [13] is: Feline panleukopenia virus, CRFK, Table 4b, quantitative PCR.
Setting [14] is: 96 h, Table 2, viral DNA in supernatant by quantitative PCR, CrFK cells, 4 days, read-out: EC50-value (μM) for CPV-2c, DNA reduction.
Where [15] appears, read: Canine parvovirus, CRFK, 96 h, read-out: EC50-value (μM) for CPV-2c, Table 1, CPE visual scoring, CrFK cells, 10 TCID50, 4 days.
[16] abbreviates: Feline panleukopenia virus, CRFK, 96 h, Table 2, viral DNA in supernatant by quantitative PCR, CrFK cells, 4 days.

Results on ten compounds are retold here after patent publication US20150018427A1, “COMPOUNDS FOR TREATING PARVOVIRUS INFECTION” (ARATANA THERAPEUTICS NV, priority 2012, published 2015).

Where a name gives a salt, the structure may show the parent alone.

Regarding `NCC12CC3CC(CC(C3)C1)C2` [1-adamantanemethylamine], the 50% effective concentration (EC50) in experiment [1] (setting [8]) and in experiment [2] (setting [9]) was more than 250 µM throughout.

Take `NC1C2CC3CC(C2)CC1C3` (centres unmarked) [2-adamantylamine HCl, 2-adamantylamine hydrochloride]: the EC50 in experiment [1] (setting [8]) was found to be 5.12 µM; in experiment [2] (setting [9]), 17.3 µM.

On to `CCC1(N)C2CC3CC(C2)CC1C3` (centres unmarked) [2-ethyladamantan-2-amine], for which the EC50 is 4.2 µM in experiment [1] (setting [10]), 2.42 µM in experiment [2] (setting [11]), 2.44 µM in experiment [3] (setting [12]) and 1.31 µM in experiment [4] (setting [13]).

Turning to `CC1(N)C2CC3CC(C2)CC1C3` (centres unmarked) [2-methyladamantan-2-amine], the EC50 was 2.25 µM in experiment [1] (setting [10]), 1.95 µM in experiment [2] (setting [11]), 1.14 µM in experiment [3] (setting [12]) and less than 0.781 µM in experiment [4] (setting [13]).

On to `NC12CC3CC(C1)CC(O)(C3)C2` [3-amino-1-amantadol], for which the EC50 in experiment [1] (Table 1, CPE visual scoring, CrFK cells, 10 TCID50, 4 days, read-out: EC50-value (μM) for CPV-2c) is more than 250 µM; in experiment [2] (Table 1, CPE visual scoring, CrFK cells, 10 TCID50, 4 days, read-out: EC50-value (μM) for FPV), more than 250 µM.

In the case of `Cl.NC12CC3CC(CC(C3)C1)C2` [Amantadine HCl, 1-Aminoadamantane hydrochloride], the EC50 in experiment [1] (setting [8]) came out at 14 µM; in experiment [2] (Table 1, CPE visual scoring, CrFK cells, 10 TCID50, 4 days, hydrochloride, read-out: EC50-value (μM) for FPV), 33.3 µM; in experiment [3] (setting [14]) it was 6.59 µM; in experiment [4] (Table 2, viral DNA in supernatant by quantitative PCR, CrFK cells, 4 days, hydrochloride) it was 30.1 µM. The “Titer reduction of FPV, log10 reduction compared with control” value (“Titer reduction of FPV, log10 reduction” for short) in experiment [5] (10 μM compound) is on record as 0 log10; in experiment [5] (50 μM compound) it was 1.50 log10; in experiment [5] (250 μM compound), 2.44 log10. In addition, the “Titer reduction of CPV-2c, log10 reduction compared with control” value in experiment [6] (10 μM compound) is 0.50 log10; in experiment [6] (50 μM compound), 2.71 log10; in experiment [6] (250 μM compound), 2.71 log10. For the same compound, in experiment [7], the “Clinical signs of parvovirus infection” value was “improved from day 3 onwards”. In addition, the “Recovery after 2 weeks of treatment” value in experiment [7] was “recovered completely”.

Take `NC12CC3CC(CC(C3)C1)C2` [Amantadine, amantadine]: the EC50 in experiment [1] (setting [15]) turned out to be 22.6 µM; in experiment [2] (setting [9]), 18.7 µM; in experiment [3] (CRFK, 96 h, read-out: EC50-value (μM) for CPV-2c, DNA reduction, Table 2, viral DNA in supernatant by quantitative PCR, CrFK cells, 4 days), 53.5 µM; in experiment [4] (setting [16]) it was 57.1 µM. Also, the “Titer reduction of FPV, log10 reduction” value in experiment [5] (10 μM compound) came to 0 log10; in experiment [5] (50 μM compound), 0.48 log10; in experiment [5] (250 μM compound) it was 1.43 log10. Moreover, the “Titer reduction of CPV-2c, log10 reduction compared with control” value in experiment [6] (10 μM compound) came to 0 log10; in experiment [6] (50 μM compound), 2.23 log10; in experiment [6] (250 μM compound) it was 2.23 log10.

As to `CC12CC3CC(C)(C1)CC(N)(C3)C2` [Memantine, memantine], the EC50 in experiment [1] (setting [8]) amounted to 23.9 µM; in experiment [2] (setting [9]), 23.3 µM; in experiment [3] (setting [14]), 17.9 µM; in experiment [4] (setting [16]), 42.6 µM. The “Titer reduction of FPV, log10 reduction” value in experiment [5] (10 μM compound) is 0 log10; in experiment [5] (50 μM compound) it was 0.71 log10; in experiment [5] (250 μM compound), 1.41 log10. Also, the “Titer reduction of CPV-2c, log10 reduction compared with control” value in experiment [6] (10 μM compound) is 0 log10; in experiment [6] (50 μM compound), 0.50 log10; in experiment [6] (250 μM compound) it was 1.55 log10.

For the compound `CNC12CC3CC(CC(C3)C1)C2` [N-methyl-1-adamantylamine], the EC50 in experiment [1] (setting [8]) and in experiment [2] (setting [9]) was more than 250 µM each time.

With `CC(N)C12CC3CC(CC(C3)C1)C2` (centres unmarked) [Rimantadine, rimantadine], the EC50 in experiment [1] (setting [15]) and in experiment [2] (setting [9]) was more than 250 µM each time.

A word on the EC50: it is the concentration needed to bring the measured effect to its halfway point.
